Experimental data taken from US20240124444A1 (Celgene Corporation, priority 2020, published 2024).

Test system: C. parvum strain UGA1
Experiment: C. parvum growth inhibition assay (Nluc luminescence in HCT-8 cells)
Type: cell-based, Cryptosporidium parvum
Conditions: for inhibition at 1 µM / inhibition at 10 µM: HCT-8; for inhibition at 1 µM: single point inhibition at 1 uM, read-out: % inh @ 1 uM C. parvum; for inhibition at 10 µM: single point inhibition at 10 uM, read-out: % inh @ 10 uM C. parvum; for EC50: C. parvum growth inhibition in HCT-8 cells, 48 hours, 6 concentrations 10-0.04 μM
Description: C. parvum GROWTH INHIBITION ASSAYS
C. parvum growth inhibition was performed as described in Hulverson M A, Vinayak S, Choi R, Schaefer D A, Castellanos-Gonzalez A, Vidadala R S R, Brooks C F, Herbert G T, Betzer D P, Whitman G R, Sparks H N, Arnold S L M, Rivas K L, Barrett L K, White A C Jr, Maly D J, Riggs M W, Striepen B, Van Voorhis W C, Ojo K K. Bumped-Kinase Inhibitors for Cryptosporidiosis Therapy. J Infect Dis. 2017 Apr. 15; 215(8):1275-1284.
C. parvum strain UGA1 […] (ATCC, Manassas, VA) were prepared as described below. HCT-8 cells were inoculated onto 96-well plates were grown for 48 hours to 90%-100% confluence. C. parvum oocysts were then incubated for 10 minutes in 10% bleach at room temperature and washed with Dulbecco's phosphate-buffered saline. One thousand oocysts per well were applied to plates with Roswell Park Memorial Institute 1640 (RPMI) medium supplemented with 10% horse serum and 1% penicillin/streptomycin. Compounds of Formula (I), Formula (II), and Formula (III) were added to the plates at different concentrations and the plates were incubated for 48 hours. Following the incubation, the monolayers were lysed for 1 hour before a luciferase reagent was added, and relative luminescence units were determined.
For certain compounds of Formula I, Formula II, and Formula III, EC50 values were calculated using curves calculated from Prism after analysis of C. parvum growth inhibition at 6 different concentrations: 10, 3.33, 1.11, 0.37, 0.12, and 0.04 μM. […] For certain compounds of Formula I, Formula II, and Formula III, single point inhibition values of 0-33% (activity level D), between 33% and 66% (activity level E), and between 67% and 100% (activity level F) are also shown in Table 1 below.

SMILES | inhibition at 1 µM (Cryptosporidium parvum) | inhibition at 10 µM (Cryptosporidium parvum) | EC50 (Cryptosporidium parvum, HCT-8, 48 h) | EC50
COc1nccc(-c2cc3cnc(NC(=O)c4cnn(CC5CCCO5)c4)cc3[nH]2)n1 (stereo in doubt) [Example 231, (R)-N-(2-(2-methoxypyrimidin-4-yl)-1H-pyrrolo[3,2-c]pyridin-6-yl)-1-((tetrahydrofuran-2-yl)methyl)-1H-pyrazole-4-carboxamide] | 33 to 66% | 33 to 66% |  | 
O=C(Nc1cc2[nH]c(-c3ccnc(OCC(F)F)n3)cc2cn1)c1cnn(CC2CCCO2)c1 (stereo in doubt) [Example 234, (S)-N-(2-(2-(2,2-difluoroethoxy)pyrimidin-4-yl)-1H-pyrrolo[3,2-c]pyridin-6-yl)-1-((tetrahydrofuran-2-yl)methyl)-1H-pyrazole-4-carboxamdie] | 33 to 66% | 33 to 66% |  | 
COc1nccc(-c2cc3cnc(NC(=O)c4cn(CC5CCOC5)nc4C)cc3[nH]2)n1 (stereo in doubt) [Example 246, (R)-N-(2-(2-methoxypyrimidin-4-yl)-1H-pyrrolo[3,2-c]pyridin-6-yl)-3-methyl-1-((tetrahydrofuran-3-yl)methyl)-1H-pyrazole-4-carboxamide] | 0 to 33% | 0 to 33% |  | 
C[C@H]1C[C@@H]1C(=O)Nc1cc2[nH]c(-c3ccnc(C(F)(F)F)n3)cc2cn1 (stereo in doubt) [Example 262, (1S,2S)-2-methyl-N-(2-(2-(trifluoromethyl)pyrimidin-4-yl)-1H-pyrrolo[3,2-c]pyridin-6-yl)cyclopropanecarboxamide] | 0 to 33% | 0 to 33% |  | 
Cc1cc(-c2cc3cnc(NC(=O)C(C)O)cc3[nH]2)ccn1 (stereo in doubt) [Example 263, (R)-2-hydroxy-N-(2-(2-methylpyridin-4-yl)-1H-pyrrolo[3,2-c]pyridin-6-yl)propanamide] | 0 to 33% | 0 to 33% |  | 
Cc1cc(-c2cc3cnc(NC(=O)C(C)O)cc3[nH]2)ccn1 (stereo in doubt) [Example 307, (S)-2-hydroxy-N-(2-(2-methylpyridin-4-yl)-1H-pyrrolo[3,2-c]pyridin-6-yl)propanamide] | 0 to 33% | 0 to 33% |  | 
CC(Oc1nccc(-c2cc3cnc(NC(=O)c4cnn(C)c4)cc3[nH]2)n1)C(F)(F)F (stereo in doubt) [Example 314, (R)-1-methyl-N-(2-(2-(1,1,1-trifluoropropan-2-yloxy)pyrimidin-4-yl)-1H-pyrrolo[3,2-c]pyridin-6-yl)-1H-pyrazole-4-carboxamide] | 0 to 33% | 0 to 33% |  | 
CCOc1nccc(-c2cc3cnc(NC(=O)c4cn(CC5CCCO5)nc4C)cc3[nH]2)n1 (stereo in doubt) [Example 322, (S)-N-(2-(2-ethoxypyrimidin-4-yl)-1H-pyrrolo[3,2-c]pyridin-6-yl)-3-methyl-1-((tetrahydrofuran-2-yl)methyl)-1H-pyrazole-4-carboxamide] | 0 to 33% | 0 to 33% |  | 
COc1nccc(-c2cc3cnc(NC(=O)c4cn(CC5CCOC5)nc4C)cc3[nH]2)n1 (stereo in doubt) [Example 326, (S)-N-(2-(2-methoxypyrimidin-4-yl)-1H-pyrrolo[3,2-c]pyridin-6-yl)-3-methyl-1-((tetrahydrofuran-3-yl)methyl)-1H-pyrazole-4-carboxamide] | 0 to 33% | 0 to 33% |  | 
Cc1cc(-c2cc3cnc(NC4CCCOC4)cc3[nH]2)ccn1 (stereo in doubt) [Example 355, (S)-2-(2-methylpyridin-4-yl)-N-(tetrahydro-2H-pyran-3-yl)-1H-pyrrolo[3,2-c]pyridin-6-amine] |  |  | > 1 µM | 
Cc1cc(-c2cc3cnc(NC4CCCOC4)cc3[nH]2)ccn1 (stereo in doubt) [Example 356, (R)-2-(2-methylpyridin-4-yl)-N-(tetrahydro-2H-pyran-3-yl)-1H-pyrrolo[3,2-c]pyridin-6-amine] |  |  |  | < 0.5 µM
